Experimental data from US20220175675A1, “ENCAPSULATING MOLECULES IN FAT GLOBULES” (The Regents of the University of California, priority 2019, published 2022).
Marks after values point to notes of the source that are not given here.

Legend:
[1] = Measured or estimated, from references; cited from earlier work
[2] = Encapsulation of hydrophobic compounds into milk fat globules (loading capacity, encapsulation efficiency); type: physicochemical, bovine; details: for maximal loading capacity (LC): maximal value over 50-2500 μM; for encapsulation efficiency (EE %), maximal/overall value: over tested concentrations
Method: Raw milk was procured from a local market and stored at 4° C. Milk was used for up to 4 days post purchase. MFGs were separated from raw milk using centrifugal separation following a modified version of the method by Gallier et al. (2010) (12). First, raw milk was diluted with Milli-Q water at 9:1 water to milk, and the solution was centrifuged at 3,000×g for 5 min using a fixed angle centrifuge rotor. Cream was then skimmed off the sides of the centrifuged tubes after discarding the aqueous phase. In order to remove more of the milk serum components, cream was reconstituted in water to reach 4% w/v, and subjected to another step of centrifugation at 3,000×g for 5 min Cream was collected as detailed prior, then reconstituted to 20% w/v in Milli-Q water. All separation steps were completed at room temperature.
Encapsulation of test compounds in MFGs was accomplished by mixing ethanolic stock solution of a compound with 20% w/v cream suspended in water. The mixture was gently inverted several times to mix, then allowed in incubate in the dark.
To test the effect of incubation temperature on the partitioning and encapsulation yield and efficiency, RA was added at 250 μM concentration and was allowed to incubate with MFGs for 30 min at 4, 22, and 40° C.
To quantify the amount of compound encapsulated in MFGs, cream was separated from ethanol-containing aqueous phase via centrifugal separation at 3,000 x g for 5 min. Cream was skimmed and added to methanol at 50 mg/mL and vortexed vigorously for 1 min, then centrifuged at 16,000×g for 10 min. Top layer of methanol was collected and absorbance was measured at appropriate wavelength for each compound. An absorbance blank was prepared following the same encapsulation and separation steps in the absence of compound. λmax in methanol (nm) for each compound is reported in Table 1.
Cream (20% w/v in Milli-Q water) that was separated following the steps in Example 2 was further separated via centrifugation at 3,000×g for 5 min. Fat content in cream was measured using a modified Folch method (13). An additional washing step was incorporated where the chloroform/water interface was washed with 1:1 water/methanol solution.

[3] = Encapsulation of hydrophobic compounds into milk fat globules (loading capacity, encapsulation efficiency); type: physicochemical, bovine; details: 250 μM, 1% v/v ethanol, room temperature
[4] = Water/octanol partitioning coefficient, Log P
[5] = 150 μM added compound, 10% v/v ethanol, 30 min, room temperature
[6] = 200 μM added compound, 10% v/v ethanol, 30 min, room temperature
[7] = 250 μM added compound, 10% v/v ethanol, 30 min, room temperature
[8] = 500 μM added compound, 10% v/v ethanol, 30 min, room temperature
[9] = 1000 μM added compound, 10% v/v ethanol, 30 min, room temperature
[10] = 1500 μM added compound, 10% v/v ethanol, 30 min, room temperature
[11] = 2000 μM added compound, 10% v/v ethanol, 30 min, room temperature
[12] = 2500 μM added compound, 10% v/v ethanol, 30 min, room temperature
[13] = 10% v/v ethanol, 30 min, room temperature
[14] = 1% v/v ethanol, 250 μM, 30 min, room temperature
[15] = 2% v/v ethanol, 250 μM, 30 min, room temperature
[16] = 4% v/v ethanol, 250 μM, 30 min, room temperature
[17] = 4 °C, 30 min, 250 μM, 1% v/v ethanol
[18] = 6% v/v ethanol, 250 μM, 30 min, room temperature
[19] = 8% v/v ethanol, 250 μM, 30 min, room temperature
[20] = 10% v/v ethanol, 250 μM, 30 min, room temperature
[21] = 22 °C, 30 min, 250 μM, 1% v/v ethanol
[22] = 40 °C, 30 min, 250 μM, 1% v/v ethanol
[23] = 40 °C, 30 min, 250 μM, 1% v/v ethanol, listed as RA
[24] = 30 min incubation, 250 μM, 1% v/v ethanol, room temperature

C=CCc1ccc(O)c(OC)c1 [Eugenol]
Water/octanol partitioning coefficient, Log P [1]: 2.61-2.66 ^(18) | % Encapsulation efficiency [2, 5]: 98.05 ± 4.10% | % Encapsulation efficiency [2, 6]: 95.43 ± 7.46% | % Encapsulation efficiency [2, 7]: 86.64 ± 7.23% | % Encapsulation efficiency [2, 8]: 85.14 ± 6.33% | % Encapsulation efficiency [2, 9]: 80.94 ± 2.42 % | % Encapsulation efficiency [2, 10]: 82.09 ± 134 % | % Encapsulation efficiency [2, 11]: 80.86 ± 2.58 % | % Encapsulation efficiency [2, 12]: 80.71 ± 3.39 % | maximal loading capacity (LC) [2, 13]: 39.65 μg per gram of milk fat | encapsulation efficiency (EE %), maximal/overall value ([2]; 10% v/v ethanol, 30 min): approximately 98% | logP (physchem): ~2.6

CC(=O)OC/C=C(C)/C=C/C=C(C)/C=C/C1=C(C)CCCC1(C)C [Retinyl acetate]
Loading capacity ([3]; 10 min incubation): 5.11 ± 0.46^ μg retinyl acetate/g of milk f | Loading capacity ([3]; 20 min incubation): 6.45 ± 0.63 μg retinyl acetate/g of milk f | Loading capacity ([3]; 40 min incubation): 7.76 ± 0.50 μg retinyl acetate/g of milk f | % Encapsulation efficiency ([3]; 50 min incubation): 89.38 ± 4.66 % | Loading capacity ([3]; 60 min incubation): 9.28 ± 0.22 *†‡¥ μg retinyl acetate/g of milk f | Loading capacity ([3]; 60 min incubation, listed as RA): 9.28 μg retinyl acetate/g of milk f | Water/octanol partitioning coefficient, Log P [1]: 6.3-9.81 ^(21, 23) | % Encapsulation efficiency ([2]; 50 μM added compound, 10% v/v ethanol, 30 min, room temperature): 107.46 ± 6.29% | % Encapsulation efficiency ([2]; 100 μM added compound, 10% v/v ethanol, 30 min, room temperature): 100.56 ± 3.83% | % Encapsulation efficiency [2, 5]: 111.73 ± 6.32% | % Encapsulation efficiency [2, 6]: 110.33 ± 3.15% | % Encapsulation efficiency [2, 7]: 105.92 ± 4.41% | % Encapsulation efficiency [2, 8]: 76.40 ± 9.65 % | % Encapsulation efficiency [2, 9]: 86.09 ± 12.48 % | % Encapsulation efficiency [2, 10]: 82.14 ± 15.94 % | % Encapsulation efficiency [2, 11]: 76.89 ± 9.88 % | % Encapsulation efficiency [2, 12]: 75.45 ± 5.19 % | % Encapsulation efficiency [2, 14]: 77.86 ± 5.54^ % | Loading capacity [2, 14]: 7.65 ± 0.54^ μg retinyl acetate/g of milk f | Loading capacity ([2]; 1% v/v ethanol, 250 μM, 30 min, room temperature, listed as RA): 7.6 μg retinyl acetate/g of milk f | EE % range with increased ethanol concentration ([2]; 1 to 10% v/v ethanol, 250 μM, 30 min): 78-107% | % Encapsulation efficiency [2, 15]: 83.40 ± 11.73% | Loading capacity [2, 15]: 8.20 ± 1.15^ μg retinyl acetate/g of milk f | % Encapsulation efficiency [2, 16]: 101.24 ± 4.76 % | Loading capacity [2, 16]: 9.95 ± 0.47 μg retinyl acetate/g of milk f | % Encapsulation efficiency [2, 17]: 53.52 ± 3.97 ^a % | Loading capacity [2, 17]: 5.26 ± 0.39 ^a μg retinyl acetate/g of milk f | % Encapsulation efficiency [2, 18]: 106.90 ± 10.93 % | Loading capacity [2, 18]: 10.51 ± 1.07 μg retinyl acetate/g of milk f | % Encapsulation efficiency [2, 19]: 107.65 ± 6.42 % | Loading capacity [2, 19]: 10.58 ± 0.63 μg retinyl acetate/g of milk f | % Encapsulation efficiency [2, 20]: 107.53 ± 5.15 % | Loading capacity [2, 20]: 10.57 ± 0.51 μg retinyl acetate/g of milk f | Loading capacity ([2]; 10% v/v ethanol, 250 μM, 30 min, room temperature, listed as RA): 10.57 μg retinyl acetate/g of milk f | % Encapsulation efficiency [2, 21]: 72.07 ± 3.85 ^b % | Loading capacity [2, 21]: 7.08 ± 0.38 ^b μg retinyl acetate/g of milk f | % Encapsulation efficiency [2, 22]: 124.42 ± 6.52 ^c % | Loading capacity [2, 22]: 12.23 ± 0.64 ^c μg retinyl acetate/g of milk f | % Encapsulation efficiency [2, 23]: 124.42% | Loading capacity [2, 23]: 12.23 μg retinyl acetate/g of milk f | % Encapsulation efficiency ([2]; 10 min incubation, 250 μM, 1% v/v ethanol, room temperature): 52.02 ± 4.66^ % | % Encapsulation efficiency ([2]; 20 min incubation, 250 μM, 1% v/v ethanol, room temperature): 65.66 ± 6.40 % | % Encapsulation efficiency [2, 24]: 76.11 ± 0.89 % | Loading capacity [2, 24]: 7.48 ± 0.09 μg retinyl acetate/g of milk f | % Encapsulation efficiency ([2]; 40 min incubation, 250 μM, 1% v/v ethanol, room temperature): 78.98 ± 5.13 % | Loading capacity ([2]; 50 min incubation, 250 μM, 1% v/v ethanol, room temperature): 8.78 ± 0.46 μg retinyl acetate/g of milk f | % Encapsulation efficiency ([2]; 60 min incubation, 250 μM, 1% v/v ethanol, room temperature): 94.38 ± 2.25 *†‡¥ % | maximal loading capacity (LC) [2, 13]: 74.15 μg per gram of milk fat | encapsulation efficiency (EE %), maximal/overall value ([2]; 10% v/v ethanol, 30 min): ≥ 100% | logP [4]: ~8
